Experimental data from patent US20210207101A1, “Hybrid Thymus, Methods of Making, and Methods of Using to Induce Xenograft Tolerance, Restore Immunocompetence and Thymic Function” (THE TRUSTEES OF COLUMBIA UNIVERSITY IN THE CITY OF NEW YORK, priority 2018, published 2021).

Columns and labels:
[1] = tested on: pig thymocytes; assay: Ex vivo depletion of thymocytes in pig thymic fragments; type: cell-based; conditions: 2DG 100 mM for 12 hours
Excerpt: There are different strategies to deplete the thymocytes in pig thymic fragments ex vivo, including anti-pig CD3 immunotoxin and complement-mediated toxicity (rabbit serum as source of complements plus anti-pig CD2). However, these two strategies were not effective. […] Results not shown.
[…] The ratio of remaining live double positive CD4 and CD8 cells (DP) or single positive (SP) CD4 (SP-CD4) or SP-CD8 cells on double negative (DN) cells, which contain the stromal cells, was used as the readout.

[2] = tested on: human thymopoiesis in grafted thymi; assay: Human immune cell reconstitution after transplantation of 2DG-treated or untreated pig thymi into humanized NSG mice; type: in vivo, mouse; conditions: 100 mM 2DG for 12 hours before grafting; mice bled every 2-3 weeks
Protocol: Using the 2DG treatment to deplete the pig thymocytes and the Hamilton syringe (Method C described above) for injection of human thymic stromal cells, a hybrid thymus was generated and tested in vivo. Specifically, two vials of fetal pig thymus were thawed. After pipetting up and down to release as many thymocytes as possible, half of the pieces were treated with 100 mM 2DG for 12 hours and the other half remained untreated. On the next day, six vials of human fetal thymus were thawed. After pipetting up and down to release as many thymocytes as possible, liberase was used to digest and release the stromal cells and make a single-cell suspension. After depletion of human CD45+ cells using magnetic-activated cell sorting (MACS), 10 million thymic stromal cells were dissolved in 150 μl of cold Matrigel at a concentration of 66,000 cells per μl. Around 10 μl of the cells (around 660,000 thymic stromal cells) were injected into each fetal pig thymus piece (either 2DG-treated and non-treated). The pieces were kept with fine forceps at room temperature for about 2 minutes until the Matrigel solidified. Then, each piece was transferred to a well of a 96-well plate containing medium with 10% human serum. […] Every 2-3 weeks following transplantation, the mice were bled, and the level of human immune cell reconstitution was evaluated.

O=CC[C@@H](O)[C@H](O)[C@H](O)CO [2DG, 2-deoxyglucose]
ratio of remaining live DP or SP-CD4 or SP-CD8 cells on double negative (DN) cells [1]: lowest ratios | effect of treatment of pig thymic fragments on human thymopoiesis in grafted thymi [2]: did not affect human thymopoiesis
